Results on eight molecules are retold here after DBAASP.

Some test systems named below: Staphylococcus capitis 1; Escherichia coli D21; Saccharomyces cerevisiae; Bacillus megaterium Bm11; Acinetobacter junii RT-4; Botrytis cinerea; Cladosporium herbarum; Alternaria alternata.
Assay in all cases: ≥ marks a high value that may be exact or a test limit, other limits are often not marked, values filed in µg/mL are converted to µM
Test [1] concerns Candida albicans ATCC 10231.
The subject of test [2] is Yersinia pseudotuberculosis YPIII.
The subject of test [3] is Pseudomonas syringae pv. tabaci 1918NCPPB.
Test [4] has as its system Pseudomonas aeruginosa ATCC 27853.
The subject of test [5] is Enterococcus faecalis ATCC 29212.
Test [6] relates to Staphylococcus aureus Cowan 1.
Test [7] concerns Schizosaccharomyces pombe.
In test [8] the test system is Escherichia coli ATCC 25922.
Test [9] concerns Staphylococcus aureus ATCC 25923.
In test [10] the test system is Pseudomonas aeruginosa ATCC 15692.
Test [11] has as its system Streptococcus pyogenes ATCC 21547.
The subject of test [12] is Staphylococcus epidermidis ATCC 12228.
The subject of test [13] is Acinetobacter baumannii ATCC 19606.
Test [14] has as its system Escherichia coli ATCC 11219.
The subject of test [15] is Staphylococcus aureus ATCC 6538.
The subject of test [16] is Pseudomonas aeruginosa ATCC 13388.
Test [17] concerns Klebsiella pneumoniae ATCC 10031.
In test [18] the test system is Salmonella enterica subsp. enterica serovar Typhimurium ATCC 14028.
The test system of test [19] is Pseudomonas aeruginosa ATCC 47085.
The test system of test [20] is Pectobacterium carotovorum subsp. carotovorum DSM 30168.
The test system of test [21] is Clavibacter michiganensis subsp. michiganensis DSM 46294.
Test [22] has as its system Pseudomonas syringae pv. syringae DSM 10604.
The test system of test [23] is Pseudomonas corrugata DSM 7228.
The test system of test [24] is Xanthomonas vesicatoria DSM 50861.
The subject of test [25] is Pseudomonas syringae pv. tomato DC3000.
Test [26] relates to Staphylococcus aureus 90857.
Test [27] has as its system Staphylococcus aureus ATCC 29213.
Test [28] relates to Candida albicans ATCC 37092.
Test [29] relates to Candida tropicalis ATCC 37097.

The structures appear in SMILES notation. In brackets after ≈: the same amount, converted by molar mass. Several values for one entry are separate records, joined by “and”; a condition that tells them apart may be missing. Equal values may be shown once.

As to `CC[C@H](C)[C@H](NC(=O)[C@H](CCCN=C(N)N)NC(=O)[C@@H]1CCCN1C(=O)[C@H](CC(C)C)NC(=O)[C@H](Cc1ccccc1)NC(=O)[C@H](CCCCN)NC(=O)[C@H](CO)NC(=O)[C@H](Cc1ccccc1)NC(=O)[C@H](Cc1c[nH]c2ccccc12)NC(=O)[C@@H]1CCCN1C(=O)[C@@H](NC(=O)[C@@H](N)Cc1ccccc1)C(C)C)C(=O)N[C@@H](CC(C)C)C(N)=O` [FVPWFSKFLPRIL], the MIC (usually the least concentration at which growth counts as inhibited) with Staphylococcus capitis 1 is 12 µM (≈ 19.8 µg/mL); in [1], 12 µM (≈ 19.8 µg/mL); in test [2], 24 µM (≈ 39.6 µg/mL); in test [3], 24 µM (≈ 39.6 µg/mL); in test [4] it was more than 48 µM; against Escherichia coli D21, 24 µM (≈ 39.6 µg/mL). Besides, the MIC in test [5] worked out at 48 µM (≈ 79.2 µg/mL); in test [6] it was 24 µM (≈ 39.6 µg/mL); in test [7], 12 µM (≈ 19.8 µg/mL); with Saccharomyces cerevisiae it was 12 µM (≈ 19.8 µg/mL); in the test on Bacillus megaterium Bm11, 3 µM (≈ 4.95 µg/mL); in test [8], 48 µM (≈ 79.2 µg/mL). Moreover, the MIC was 24 µM (≈ 39.6 µg/mL) in [9]; 12 µM (≈ 19.8 µg/mL) with Acinetobacter junii RT-4; not below 48 µM in [10]; 12 µM (≈ 19.8 µg/mL) in test [11]; 12 µM (≈ 19.8 µg/mL) in test [12]; 48 µM (≈ 79.2 µg/mL) in test [13].

`CC[C@H](C)[C@H](NC(=O)CN)C(=O)N[C@@H](Cc1cnc[nH]1)C(=O)N[C@@H](CC(=O)O)C(=O)N[C@H](C(=O)N[C@@H](CC(C)C)C(=O)N[C@@H](CCCCN)C(=O)N[C@@H](Cc1ccc(O)cc1)C(=O)N[C@@H](C)C(=O)N[C@@H](CCCCN)C(=O)N1CCC[C@H]1C(=O)N[C@@H](CO)C(N)=O)[C@@H](C)CC` [GIHDILKYAKPS]: the MIC in test [14] was 5 µM (≈ 6.7 µg/mL); in test [15] it was 10 µM (≈ 13.4 µg/mL); in test [16], 15 µM (≈ 20.1 µg/mL); in test [17], 10 µM (≈ 13.4 µg/mL); in test [18], 10 µM (≈ 13.4 µg/mL).

Regarding `CC[C@H](C)[C@H](NC(=O)CN)C(=O)N[C@@H](CCCN=C(N)N)C(=O)N[C@@H](CC(=O)O)C(=O)N[C@H](C(=O)N[C@@H](CC(C)C)C(=O)N[C@@H](CCCCN)C(=O)N[C@@H](Cc1ccc(O)cc1)C(=O)NCC(=O)N[C@@H](CCCCN)C(=O)N1CCC[C@H]1C(=O)N[C@@H](CO)C(N)=O)[C@@H](C)CC` [GIRDILKYGKPS], the MIC in test [14] came to 5 µM (≈ 6.73 µg/mL); in [15] it was 10 µM (≈ 13.5 µg/mL); in test [16] it was 20 µM (≈ 26.9 µg/mL); in [17], 5 µM (≈ 6.73 µg/mL); in test [18], 5 µM (≈ 6.73 µg/mL).

As for `CC[C@H](C)[C@H](NC(=O)[C@H](CCCN=C(N)N)NC(=O)[C@H](CC(C)C)NC(=O)[C@H](Cc1ccccc1)NC(=O)[C@H](CCC(=O)O)NC(=O)[C@H](CCCCN)NC(=O)[C@H](Cc1c[nH]c2ccccc12)NC(=O)[C@H](CCCCN)NC(=O)[C@H](Cc1c[nH]c2ccccc12)NC(=O)CNC(=O)[C@H](Cc1c[nH]c2ccccc12)NC(=O)[C@H](CCCCN)NC(=O)[C@H](Cc1c[nH]c2ccccc12)NC(=O)[C@H](CC(C)C)NC(=O)[C@H](CC(C)C)NC(=O)CN)C(=O)N[C@H](C(=O)NCC(=O)N[C@@H](Cc1ccc(O)cc1)C(N)=O)C(C)C` [GLLWKWGWKWKEFLRIVGY], the values for the MIC in test [9] and in [19] were more than 415 µM and not below 415 µM, respectively.

As to `CC(C)C[C@H](NC(=O)[C@H](C)NC(=O)[C@H](CCCN=C(N)N)NC(=O)[C@H](CCCCN)NC(=O)[C@H](CC(C)C)NC(=O)[C@H](C)NC(=O)[C@H](CCCN=C(N)N)NC(=O)[C@H](C)NC(=O)[C@H](C)NC(=O)[C@H](CCCCN)NC(=O)[C@H](CCCCN)NC(=O)[C@@H](N)CCCCN)C(N)=O` [KKKAARALKRAL], the MIC in test [20] is 29.5 µM (≈ 40 µg/mL); in test [21], 29.5 µM (≈ 40 µg/mL); in test [22], 29.5 µM (≈ 40 µg/mL); in test [23] it was 29.5 µM (≈ 40 µg/mL); with Botrytis cinerea, not below 73.9 µM; against Cladosporium herbarum, 29.5 µM (≈ 40 µg/mL). Also, the MIC in the test with Alternaria alternata was not below 73.9 µM; in test [24], 29.5 µM (≈ 40 µg/mL); in test [25], 7.39 µM (≈ 9.99 µg/mL).

Regarding `CC[C@H](C)[C@H](NC(=O)[C@H](CC(C)C)NC(=O)[C@@H](N)CC(C)C)C(=O)N[C@@H](CCCN=C(N)N)C(=O)N[C@@H](C)C(=O)N[C@@H](C)C(=O)N[C@@H](CCCCN)C(=O)N[C@@H](CCCCN)C(=O)N[C@@H](Cc1ccccc1)C(=O)N[C@H](C(=O)N[C@@H](CCCCN)C(=O)N[C@@H](CCCCN)C(N)=O)[C@@H](C)CC` [LLIRAAKKFIKK], the MIC in test [20] is 28 µM (≈ 40 µg/mL); in test [21], 28 µM (≈ 40 µg/mL); in test [22] it was 28 µM (≈ 40 µg/mL); in test [23] it was 28 µM (≈ 40 µg/mL); in the test on Botrytis cinerea, not below 70 µM; against Cladosporium herbarum, 28 µM (≈ 40 µg/mL). Besides, the MIC in test [26] was not below 62.5 µM; against Alternaria alternata, not below 70 µM; in [24], 28 µM (≈ 40 µg/mL); in test [25], 28 µM (≈ 40 µg/mL).

In the case of `CC(C)C[C@H](NC(=O)[C@H](C)NC(=O)[C@H](CCCCN)NC(=O)[C@H](CCCCN)NC(=O)[C@H](CC(C)C)NC(=O)[C@H](Cc1ccccc1)NC(=O)[C@H](CCCN=C(N)N)NC(=O)[C@@H](N)CC(C)C)C(=O)N[C@@H](CCCCN)C(=O)N[C@@H](CCCCN)C(=O)N[C@@H](CC(C)C)C(=O)N[C@@H](Cc1ccccc1)C(N)=O` [LRFLKKALKKLF], the MIC was found to be 0.664 µM (≈ 0.999 µg/mL) in test [20]; 0.166 µM (≈ 0.25 µg/mL) in test [21]; 0.0664 µM (≈ 0.0999 µg/mL) in test [22]; 0.332 µM (≈ 0.5 µg/mL) in test [23]; 0.625 µM (≈ 0.94 µg/mL) in test [26]; 0.166 µM (≈ 0.25 µg/mL) in test [24]. This molecule also returned an MIC in [25] of 0.332 µM (≈ 0.5 µg/mL).

As for `CC(C)C[C@H](NC(=O)[C@@H](N)CCCN=C(N)N)C(=O)N[C@@H](Cc1ccc(O)cc1)C(=O)N[C@@H](CCCN=C(N)N)C(N)=O` [RLYR], the MIC was 4.5 µM and 10.2 µM in test [27]; 4.7 µM and 10.2 µM in test [5]; 10 µM and 6.4 µM in test [28]; 6.1 µM and 10.2 µM in test [8]; 1.3 µM and 1.8 µM in [29].
